Reference: US11168052B2, “Carbamate derivative compounds, processes for preparing them and their uses” (BIO-PHARM SOLUTIONS CO., LTD., priority 2016, dated 2021)

Assays:
[1] = test system: BIC-induced clonic seizure in mice; experiment: Chemical induced seizure model (BIC); format: in vivo, ICR mice; conditions: Mus musculus, ip
Experimental: Male ICR mice (purchased from Orient Bio Inc. Korea) of body weight 19-26 g were used for these studies. The test materials were administered intraperitoneal route in a volume of 10 ul/g weight. Pharmacological effects of all the test materials were evaluated to compared test groups (n=6) with a control group (n=6). Control group was administrated vehicle, only. The peak time was determined by administration test material's random dose for 0.5 and 1 hour. The time that the most protect was defined peak time and ED50 was determined by other dose administration at peak time. BIC was dissolved in 0.9% saline and administered subcutaneously (s.c.) at its CD97 (convulsive dose 97%) the dose of BIC that produced clonic seizures in 97% into a loose fold of skin in the midline of the neck in a volume of 10 ul/g body weight. The animals were then transferred to observation cages and observed continuously for 30 min. Clonic seizure was elicited in approximately 95% of control group. Protection was defined as complete absence of a clonic seizure over the 30-min observation period. The time that the most protect was defined peak time and ED50 was determined by other dose administration at peak time. The effective dose of compound necessary to protect against seizures to 50% of controls (i.e., ED50) was determined by log probit analysis using Excel 2007 (Microsoft).

[2] = test system: Post operation-induced pain model in rats; experiment: Antiallodynic activity on post operative-induced pain model (PO), von Frey test; format: in vivo, Sprague-Dawley rats; conditions: dose 200 mg/kg, von Frey paw withdrawal threshold relative to sham
From the text: Male Sprague-Dawley rats (Orient Bio, Korea, 230-250g) were habituated at least 3 days before surgery, and were allowed free access to food and water throughout the experimentation. Room temperature and humidity were maintained at 24±2 and 50±10%, respectively. The process of performing the post-operation model's surgery was adapted from Brennan et al (1996). At first, rats with allodynia (threshold valueless than 8 g) were excluded in Pre-von Frey Test. During the post-operation surgery, rats were anesthetized under gaseous anesthesia with 2% isoflurane. The rat was placed, lying face down, on 37 degree warm plate to prevent against hypothermia. The ipsilateral plantar aspect (left side) of the hind paw was prepared in a sterile manner with a 10% povidone-iodine solution. […]
For efficacy measure, the threshold value of group C was assigned 100% efficacy, and the percentage of the threshold values of group A compared to group C (for each different dose level) were calculated as the efficacies. Base on these efficacy values, ED50 was calculated using log fitting. […]
For pain threshold test, all animals were placed in a stainless steel meshed chamber and habituated for 30 min in the test cage. The tactile sensitivity of the ipsilateral hind paw was measured using the up-and-down method (Dixon, 1980) with seven von Frey monofilaments (0.4, 1, 2, 4, 6, 8, and 15 g) using 3 trials. […]

For NC(=O)O[C@@H]1CCc2cccc(Cl)c2[C@@H]1O [Example 1, (1S, 2R)-8-chloro-1-hydroxy-1,2,3,4-tetrahydronaphthalen-2-yl carbamate], the ED50 [1] was 28.9 mg/kg and the “Post Operation Efficacy (% of sham threshold)” value [2] was 200 (29.8%).
